According to the supplement of paper PMC5908809:

Assays:
[1] = system: KHYG-1 (IL-2 2.5 ng/mL); experiment: percent inhibition of viability; higher = more inhibition; conditions: 72 h
[2] = system: NK-92 (IL-2 2.5 ng/mL); experiment: as above; conditions: 72 h
[3] = system: normal primary NK cells, pool 2 (3 donors) (IL-2 2.5 ng/mL); experiment: as above; conditions: 72 h
[4] = system: DERL-7 (IL-2 2.5 ng/mL); experiment: as above; conditions: 72 h
[5] = system: normal primary NK cells, pool 3 (3 donors) (IL-2 2.5 ng/mL); experiment: as above; conditions: 72 h
[6] = system: NK-YS (IL-2 2.5 ng/mL); experiment: as above; conditions: 72 h
[7] = system: normal primary NK cells, pool 1 (3 donors) (IL-2 2.5 ng/mL); experiment: as above; conditions: 72 h
[8] = system: YT (IL-2 2.5 ng/mL); experiment: as above; conditions: 72 h
[9] = system: normal primary NK cells, pool 1 (3 donors), resting (IL-2 0 ng/mL); experiment: as above; conditions: 72 h
[10] = system: SNK-6 (IL-2 2.5 ng/mL); experiment: as above; conditions: 72 h
[11] = system: IMC-1 (IL-2 20 ng/mL); experiment: as above; conditions: 72 h
[12] = system: KAI3 (IL-2 2.5 ng/mL); experiment: as above; conditions: 72 h
[13] = system: NKL (IL-2 2.5 ng/mL); experiment: as above; conditions: 72 h
[14] = system: KHYG-1 (IL-2 2.5 ng/mL); experiment: drug sensitivity score (DSS) (DSS units); higher = more sensitive; extreme values may be limits of the assay; conditions: 72 h
[15] = system: NK-92 (IL-2 2.5 ng/mL); experiment: as above; conditions: 72 h
[16] = system: normal primary NK cells, pool 2 (3 donors) (IL-2 2.5 ng/mL); experiment: as above; conditions: 72 h
[17] = system: DERL-7 (IL-2 2.5 ng/mL); experiment: as above; conditions: 72 h
[18] = system: normal primary NK cells, pool 3 (3 donors) (IL-2 2.5 ng/mL); experiment: as above; conditions: 72 h
[19] = system: NK-YS (IL-2 2.5 ng/mL); experiment: as above; conditions: 72 h
[20] = system: normal primary NK cells, pool 1 (3 donors) (IL-2 2.5 ng/mL); experiment: as above; conditions: 72 h
[21] = system: YT (IL-2 2.5 ng/mL); experiment: as above; conditions: 72 h
[22] = system: normal primary NK cells, pool 1 (3 donors), resting (IL-2 0 ng/mL); experiment: as above; conditions: 72 h
[23] = system: SNK-6 (IL-2 2.5 ng/mL); experiment: as above; conditions: 72 h
[24] = system: IMC-1 (IL-2 20 ng/mL); experiment: as above; conditions: 72 h
[25] = system: KAI3 (IL-2 2.5 ng/mL); experiment: as above; conditions: 72 h
[26] = system: NKL (IL-2 2.5 ng/mL); experiment: as above; conditions: 72 h
[27] = system: normal NK cells expanded with K562-aAPC; experiment: as above; conditions: 72 h; IL-2 2.5 ng/mL
Protocol: (§1)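 Drug sensitivity and resistance testing on K562-aAPC-expanded normal NK cells: 5 concentrations (10-fold steps over a 10,000-fold range), 72 h at 37 °C, viability by CellTiter-Glo normalised to DMSO and benzethonium chloride controls; DSS from the fitted curve.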

[28] = system: normal NK cells expanded with K562-aAPC; experiment: percent inhibition of viability; higher = more inhibition; conditions: 72 h, IL-2 2.5 ng/mL
Protocol: as §1

[29] = system: KAI3 (IL-2 2.5 ng/mL); experiment: relative IC50 (inflection point of fitted viability curve, relative to fitted max inhibition); higher = less sensitive; conditions: 72 h
Protocol: (§2)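 Drug sensitivity and resistance testing: 5 concentrations over a 10,000-fold range, 72 h at 37 °C, viability by CellTiter-Glo normalised to DMSO and benzethonium chloride controls. IC50 is the inflection point of a logistic fit (min fixed at 0, max fitted), so it is relative to the fitted maximal inhibition. Kept only where fitted max inhibition is at least 50%.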

[30] = system: NKL (IL-2 2.5 ng/mL); experiment: as above; conditions: 72 h
Protocol: as §2

CCOc1cc2ncc(C#N)c(Nc3ccc(OCc4ccccn4)c(Cl)c3)c2cc1NC(=O)/C=C/CN(C)C [Neratinib] (max concentration tested 1000 nM)
percent inhibition of viability [%]
Conditions | 0.1 nM | 1 nM | 10 nM | 100 nM | 1000 nM
[1] | 4.6 | -0.87 | 25.1 | 2.37 | 22
[2] | 3.19 | -13.2 | 7.23 | 7.67 | 55.4
[3] | -8.13 | -2.28 | 2.22 | -1.98 | 33.3
[4] | -7.68 | 3.12 | 6.29 | 8.45 | 68.9
[5] | -13.9 | -5.37 | -1.66 | -10.9 | 18.9
[6] | -2.05 | -4.96 | -1.85 | -5.03 | 15.2
[7] | -6.45 | -7.28 | -6.63 | -9.14 | 36.2
[8] | 1.33 | 4.12 | 5.46 | 1.01 | 10.2
[9] | -2.47 | -22.5 | -7.51 | -6.96 | 70.1
[10] | 11 | 16.1 | 38.2 | 6.35 | 35.7
[11] | -2.69 | -1.05 | 1.8 | 4.28 | 1.07
[12] | -4.25 | -5.47 | -6.36 | 0.65 | 48.1
[13] | -1.48 | 12.9 | 8.45 | 12.5 | 40.4
[28] | -2.53 | 0.83 | -1.65 | 8.19 | 50

Conditions | drug sensitivity score
[14] | 1.72
[15] | 4.28
[16] | 1.38
[17] | 5.21
[18] | 0.26
[19] | 0.13
[20] | 1.29
[21] | 0
[22] | 3.36
[23] | 0
[24] | 0
[25] | 2.59
[26] | 3.24
[27] | 4.02

OC[C@H]1O[C@@H](n2cnc3c2N=CNC[C@H]3O)C[C@@H]1O [Pentostatin]
Conditions | relative IC50 [µM]
[29] | > 10
[30] | > 10
